Experimental data: publication PMC8486176 (Cancer Science, 2021)
Ends that are not written are not given here. * marks the point of attachment. RhodamineB = CCN(CC)c1ccc2c(-c3ccccc3C(=O)*)c3ccc(=[N+](CC)CC)cc-3oc2c1

System: NUGC‐4 cells
Experiment: Immunofluorescence binding of RhoB‐labeled peptides to fixed NUGC‐4 cells
Format: cell-based, human
Conditions: ImageJ quantification, Figure 4C

“RhoB‐CG7C: CG7C peptide labeled with rhodamine B, negative control (RhodamineB-CGGGGGGGC; cysteine pairing not given here)” was tested. Which “mean fluorescence intensity (MFI)” value did it give?
The value was “small positive MFI”.
